The results in this text go back to article PMC12705620 (Frontiers in Pharmacology, 2025).

SMILES strings stand for the structures. Bridge positions count the residues as written; N and C are the ends. Square brackets hold non-standard residues; d marks the D form. Peptide text beside a SMILES is read from it. I, II: the chains in the order shown. Dap = NC[C@H](N)C(=O)O; Ahx = NCCCCCC(=O)O

The test system of experiment [1] is TNF-α production by dTHP-1 macrophages stimulated with LPS (E. coli O111:B4). Briefly: Endotoxin neutralization, LPS-stimulated macrophages. The class given is cell-based, human. The conditions noted are these: LPS 5 ng/mL with 1 or 2 µM peptide, 4 h, serum-free RPMI, ELISA, versus NT. The protocol: (§1) The endotoxin-neutralizing capacity of the peptides was assessed by measuring tumor necrosis factor-alpha (TNF-α) production by dTHP-1 macrophages. dTHP-1 macrophages were stimulated with either lipopolysaccharide (LPS; E. coli O111:B4; 5 ng/mL, Sigma-Aldrich) or UV-inactivated S. aureus JAR060131 (MOI 2; as described in Section 5.2), in the presence or absence of one or 2 µM peptides. Cells were cultured in serum-free RPMI and incubated for 4 h at 37 °C with 5% CO2. Positive controls consisted of cells stimulated with LPS or UV-S. aureus without peptide treatment (no treatment, NT), and unstimulated cells served as negative controls. After stimulation, cell supernatants were collected, and cytokine levels of TNF-α were quantified using human ELISA kits (R&D Systems, USA) according to the manufacturer’s instructions. Each condition was tested in triplicate.

The test system of experiment [2] is Enterococcus faecium LUH15122. It is filed as cell-based. The following applies: LUH15122, 18 h.
Experiment [3] relates to TNF-α production by unstimulated dTHP-1 macrophages. Nature of the experiment: TNFα induction by peptides alone in macrophages. The class given is cell-based, human. The following applies: 2 µM peptide, 4 h, no endotoxin stimulation, versus unstimulated cells. The method, then:
as §1

Take `N=C(N)NCCC[C@H](NC(=O)[C@H](Cc1c[nH]c2ccccc12)NC(=O)[C@H](CCC(N)=O)NC(=O)[C@H](Cc1c[nH]c2ccccc12)NC(=O)[C@H](CCCNC(=N)N)NC(=O)[C@@H](N)CCCNC(=N)N)C(=O)NC[C@H](NC(=O)[C@H](CCCNC(=N)N)NC(=O)[C@H](Cc1c[nH]c2ccccc12)NC(=O)[C@H](CCC(N)=O)NC(=O)[C@H](Cc1c[nH]c2ccccc12)NC(=O)[C@H](CCCNC(=N)N)NC(=O)[C@@H](N)CCCNC(=N)N)C(=O)NCCCCCC(=O)N[C@@H](CSSC[C@H](NC(=O)CCCCCNC(=O)[C@H](CNC(=O)[C@H](CCCNC(=N)N)NC(=O)[C@H](Cc1c[nH]c2ccccc12)NC(=O)[C@H](CCC(N)=O)NC(=O)[C@H](Cc1c[nH]c2ccccc12)NC(=O)[C@H](CCCNC(=N)N)NC(=O)[C@@H](N)CCCNC(=N)N)NC(=O)[C@H](CCCNC(=N)N)NC(=O)[C@H](Cc1c[nH]c2ccccc12)NC(=O)[C@H](CCC(N)=O)NC(=O)[C@H](Cc1c[nH]c2ccccc12)NC(=O)[C@H](CCCNC(=N)N)NC(=O)[C@@H](N)CCCNC(=N)N)C(N)=O)C(N)=O` [LBT-1] (I: H-RRWQWR[Dap][Ahx]C-NH2 / II: H-RRWQWR[Dap][Ahx]C-NH2 / III: H-RRWQWR / IV: H-RRWQWR; amide I:7-III:C, II:7-IV:C; disulfide I:9-II:9; N-terminus and C-terminus assumed): the “Reduction of LPS-induced TNFα levels” value in experiment [1] is reported as “effectively neutralize”. Also, the LC99.9 in experiment [2] worked out at 0.94 µM. Also, in experiment [3], the “TNFα induction by peptide alone” value was “minimal but significant”.

With `N=C(N)NCCC[C@H](NC(=O)[C@H](Cc1c[nH]c2ccccc12)NC(=O)[C@H](CCC(N)=O)NC(=O)[C@H](Cc1c[nH]c2ccccc12)NC(=O)[C@H](CCCNC(=N)N)NC(=O)[C@@H](N)CCCNC(=N)N)C(=O)NCCCC[C@H](NC(=O)[C@H](CCCNC(=N)N)NC(=O)[C@H](Cc1c[nH]c2ccccc12)NC(=O)[C@H](CCC(N)=O)NC(=O)[C@H](Cc1c[nH]c2ccccc12)NC(=O)[C@H](CCCNC(=N)N)NC(=O)[C@@H](N)CCCNC(=N)N)C(=O)NCCCCCC(=O)N[C@@H](CSSC[C@H](NC(=O)CCCCCNC(=O)[C@H](CCCCNC(=O)[C@H](CCCNC(=N)N)NC(=O)[C@H](Cc1c[nH]c2ccccc12)NC(=O)[C@H](CCC(N)=O)NC(=O)[C@H](Cc1c[nH]c2ccccc12)NC(=O)[C@H](CCCNC(=N)N)NC(=O)[C@@H](N)CCCNC(=N)N)NC(=O)[C@H](CCCNC(=N)N)NC(=O)[C@H](Cc1c[nH]c2ccccc12)NC(=O)[C@H](CCC(N)=O)NC(=O)[C@H](Cc1c[nH]c2ccccc12)NC(=O)[C@H](CCCNC(=N)N)NC(=O)[C@@H](N)CCCNC(=N)N)C(N)=O)C(N)=O` [LBT] (I: H-RRWQWRK[Ahx]C-NH2 / II: H-RRWQWRK[Ahx]C-NH2 / III: H-RRWQWR / IV: H-RRWQWR; amide I:7-III:C, II:7-IV:C; disulfide I:9-II:9; N-terminus and C-terminus assumed), the “Reduction of LPS-induced TNFα levels” value in experiment [1] is listed as “effectively neutralize”.
